The nature of the data set: Drug loading of CHEAP formulation. As to conditions: hydrophobic model drugs loaded into CHEAP.

Protocol: The intracellular delivery of hydrophobic drugs was conducted using a CHEAP formulation vehicle. Loading, as well as stability, of the drug-loaded CHEAP formulations was investigated on three different hydrophobic drugs. Rosiglitazone (RSG), Paclitaxel (PAX), and Tamoxifen (TAM) were used as model drugs for loading (FIG. 6A).

As to `CC/C(=C(\c1ccccc1)c1ccc(OCCN(C)C)cc1)c1ccccc1` [TAM, Tamoxifen], the “binding affinity towards the CHEAP formulation” value is given as “high binding affinity”.
To `CC(=O)O[C@H]1C(=O)[C@@]2(C)[C@H]([C@H](OC(=O)c3ccccc3)[C@]3(O)C[C@H](OC(=O)[C@H](O)[C@@H](NC(=O)c4ccccc4)c4ccccc4)C(C)=C1C3(C)C)[C@]1(OC(C)=O)CO[C@@H]1C[C@@H]2O` [PAX, Paclitaxel] belongs “high binding affinity”.
